The values below come from patent US8293274B2, “Intestinal absorptive anti-tumor agent” (Kabushiki Kaisha Sangi, priority 2005, dated 2012).

Where a name gives a salt, the structure may show the parent alone.

The data set is described as follows: Intestinal absorption test of various antitumor agents (plasma concentration by gas/liquid chromatography). As to the method:
Rats were fasted for 16 hours and then forced oral administration to the stomach was performed using an oral gastric tube for rats.
Blood was collected from the tail vein prior to administration and 15 and 30 minutes, 1, 2, 3, 4, 6, 8 and 24 hours after administration. The collected blood was centrifuged at 4° C. for 15 minutes at 3,000 rpm to obtain plasma, and then the plasma concentrations of the various antitumor agents were measured.
These concentrations were measured using gas chromatography and liquid chromatography.

[1] abbreviates: male, Sprague-Dawley, rat, in vivo, po, 50 mg/kg.
Setting [2] is: male, Sprague-Dawley, rat, in vivo, po, 0.2 mg/kg.
The mark [3] stands for this setting: bleomycin hydrochloride in plasma, rats fasted 16 hours, oral, 2.0 mg/kg.

As for `O=P1(NCCCl)OCCCN1CCCl` (stereo not drawn) [Comparative Test Example 4-2, ifosfamide], under setting [1], the AUC(0-t) came out at 1240 ng·h/mL, the peak concentration (Cmax) amounted to 250 ng/mL and the Tmax came to 45 min.

Take `CC[C@]1(O)C[C@H]2CN(CCc3c([nH]c4ccccc34)[C@@](C(=O)OC)(c3cc4c(cc3OC)N(C=O)[C@H]3[C@@](O)(C(=O)OC)[C@H](OC(C)=O)[C@]5(CC)C=CCN6CC[C@]43[C@@H]65)C2)C1` [Comparative Test Example 4-4, vincristine sulfate]: under setting [2], the AUC(0-t) worked out at 1110 ng·h/mL, the Cmax stood at 90 ng/mL and the Tmax was 49.8 min.

Consider “bleomycin hydrochloride [Comparative Test Example 4-3]”, for which, under setting [3], the AUC0-24 h was 0.52 µg·h/mL, the Cmax stood at 120 ng/mL and the Tmax worked out at 85.2 min.

As usually defined, the AUC(0-t) is the area under the concentration-time curve up to a stated or last time point. Broadly, the Cmax is the maximum level reached in the sampled fluid or tissue. For orientation: Tmax means the time from dosing to the highest level.
